From patent publication US5602174A, “Treatment” (Beecham Wuefling GmbH & Co., priority 1986, dated 1997)

How the values were obtained:
coronary spasm = assay: Vasopressin test in anaesthetized rats (coronary spasm, ST-segment elevation in the ECG); format: in vivo, rat; details: 0.6 g/kg i.d., vasopressin (Lysopressin 1 I.U./kg) i.v.
Protocol: Vasopressin (Lysopressin: 1 I.U./kg) was administered intravenously in order to provoke coronary spasm (ST-segment elevation in the ECG).
The ability of test compounds to reduce coronary spasm is taken as a measure of their anti-anginal potential in spasm-induced angina pectoris. (Ref. Drug. Res. 33(11), 8,1117-1121 (1983)).

[1] = Haemodynamic profile in anaesthetized rats; format: in vivo, rat; design: Dhr^20 (i.v. dose which reduces heart rate by ca. 20%) / Dhr^20 (dose which reduces heart rate by ca. 20%): unit not given here
Description: The effect of compounds of the invention on heart rate, systolic left ventricular pressure, left ventricular dp/dt max and mean arterial blood pressure was investigated so as to obtain information on the anti-anginal potential of these compounds, by reducing the oxygen demand of the ischaemic heart.
*Dhr^20 = i.v. dose which reduces heart rate by ca. 20%
**LVP = systolic left ventricular pressure
***BP = mean arterial blood pressure
^a = i.d. administration

[2] = i.v. at Dhr^20, anaesthetized rat

Row | SMILES | active against coronary spasm (coronary spasm) | % effect of Dhr^20 on BP (mean arterial blood pressure) [1, 2] | % effect of Dhr^20 on LVP (systolic left ventricular pressure) [1, 2] | % effect of Dhr^20 on dp/dtmax (left ventricular dp/dt max) [1, 2] | Dhr^20 (i.v. dose which reduces heart rate by ca. 20%) ([1]; i.v., anaesthetized rat) | i.v. duration of action on heart rate (rat) ([1]; i.v., anaesthetized rat) | % effect of Dhr^20 on BP (mean arterial blood pressure) ([1]; rat, in vivo) | Dhr^20 (dose which reduces heart rate by ca. 20%) ([1]; rat, in vivo) | duration of action on heart rate (rat) ([1]; rat, in vivo) | % effect of Dhr^20 on BP (mean arterial blood pressure) ([1]; rat, in vivo, iv) | % effect of Dhr^20 on LVP (systolic left ventricular pressure) ([1]; rat, in vivo, iv) | Dhr^20 (i.v. dose which reduces heart rate by ca. 20%) ([1]; rat, in vivo, iv) | i.v. duration of action on heart rate (rat) ([1]; rat, in vivo, iv)
1 | COc1ccc(CCN(C)CCCN(Cc2ccccc2[N+](=O)[O-])c2ccc(OC)c(OC)c2)cc1OC [Example E1] | active | 0% | -2% | -3% | 1.6 | 10 min | – | – | – | – | – | – | –
2 | COc1ccc(CCN(C)CCCN(C(=O)NCc2ccccc2)c2ccc(OC)c(OC)c2)cc1OC [Example E30, (N-[3,4-Dimethoxyphenyl]-N-3-[N'-2-(3,4-dimethoxyphenyl)-ethyl-N'-methylamino]-propyl)-N"-benzylurea] | – | -15% | -10% | -20% | 1.6 | 10 min | – | – | – | – | – | – | –
3 | COc1ccc(CCN(C)CCCN(C(=O)CCc2ccccc2)c2ccc(OC)c(OC)c2)cc1OC [Example E15, (N-[5,4-Dimethoxyphenyl]-N-3-[N'-2-(3,4-dimethoxyphenyl)-ethyl-N'-methylamino]-propyl)-(3-phenyl)propanoic acid amide] | – | -8% | -7% | -7% | 1.6 | 10 min | – | – | – | – | – | – | –
4 | COc1ccc(CCN(C)CCCN(C(=O)Oc2ccccc2)c2ccc(OC)c(OC)c2)cc1OC [Example E25, (N-[3,4-Dimethoxyphenyl]-N-3-[N'-2-(3,4-dimethoxyphenyl)-ethyl-N'-methylamino]-propyl)-phenyl-urethane] | – | -14% | -10% | -2% | 0.8 | 10 min | – | – | – | – | – | – | –
5 | COc1ccc(CCN(C)CCCN(C(=O)c2ccc([N+](=O)[O-])cc2)c2ccc(OC)c(OC)c2)cc1OC [Example E50, (N-[3,4-Dimethoxyphenyl]-N-3-[N'-2-(3,4-dimethoxyphenyl)-ethyl-N'-methyl-amino]-propyl)-4-nitrobenzamide] | – | – | – | – | – | – | -6% | 16 | > 90 min | -1% | -1% | 1.6 | 10 min
6 | CCCCOC(=O)N(CCCN(C)CCc1ccc(OC)c(OC)c1)c1ccc(OC)c(OC)c1 [Example E24, (N-[3,4-Dimethoxyphenyl]-N-3-[N'-2-(3,4-dimethoxyphenyl)-ethyl-N'methylamino]-propyl)-n-butyl-urethane] | – | -15% | -13% | -8% | 3.2 | 10 min | – | – | – | – | – | – | –
7 | COc1ccc(CCN(C)CCCN(c2ccc(OC)c(OC)c2)c2ncc([N+](=O)[O-])cc2[N+](=O)[O-])cc1OC [Example E44] | – | -10% | -6% | -8% | 3.2 | 10 min | – | – | – | – | – | – | –
8 | CCCCC(=O)N(CCCN(C)CCc1ccc(OC)c(OC)c1)c1ccc(OC)c(OC)c1 [Example E12, (N-[3,4-Dimethoxyphenyl]-N-3-[N'-2-(3,4-dimethoxyphenyl)-ethyl-N'-methylamino]-propyl)-pentanoic acid amide] | – | -11% | -6% | -6% | 1.6 | 10 min | – | – | – | – | – | – | –
9 | COc1ccc(CCN(C)CCCN(Cc2ccccc2)c2ccc(OC)c(OC)c2)cc1OC [Example E4, (N-[3,4-Dimethoxyphenyl]-N-3-[N'-2-(3,4-dimethoxyphenyl)-ethyl-N'-methylamino]-propyl)-benzylamine] | – | -6% | -3% | -12% | 3.2 | 10 min | – | – | – | – | – | – | –
10 | CCCNC(=O)N(CCCN(C)CCc1ccc(OC)c(OC)c1)c1ccc(OC)c(OC)c1 [Example E27, (N-[3,4-Dimethoxyphenyl]-N-3-[N'-2-(3,4-dimethoxyphenyl)-ethyl-N'-methylamino]-propyl)-N"-n-propyl-urea] | – | -4% | -2% | -1% | 6.4 | 5 to 10 min | – | – | – | – | – | – | –
11 | COc1ccc(CCN(C)CCN(C(=O)NC(C)c2ccccc2)c2ccc(OC)c(OC)c2)cc1OC (centres unmarked) [Example E32] | – | -13% | -7% | -3% | 3.2 | 10 min | – | – | – | – | – | – | –
12 | CCCCCN(CCCN(C)CCc1ccc(OC)c(OC)c1)c1ccc(OC)c(OC)c1 [Example E34, (N-[3,4-Dimethoxyphenyl]-N-3-[N'-2-(3,4-dimethoxyphenyl)-ethyl-N'-methylamino]-propyl)-n-pentylamine] | – | -9% | -9% | -10% | 1.6 | 5 to 10 min | – | – | – | – | – | – | –
13 | COc1ccc(CCN(C)CCCN(Cc2ccc([N+](=O)[O-])cc2)c2ccc(OC)c(OC)c2)cc1OC [Example E6, (N-[3,4-Dimethoxyphenyl]-N-3-[N'-2-(3,4-dimethoxyphenyl)-ethyl-N'-methylamino]-propyl)-(4-nitro)-benzylamine] | – | +1% | +5% | -5% | 0.4 | 60 min | – | – | – | – | – | – | –
